Source: paper PMC12254355 (Nature Communications, 2025)
Ends that are not written are not given here.

What was measured:
[1] = tested on: E. coli AIC222 (polymyxin resistant; colistin-resistant strain); details: 24 h
HEK293T cells = details: for CC50 vs HEK293T cells (source data of Figure 4a): 24 h
E. coli AIC221 = details: AIC221, 24 h
[2] = tested on: E. faecalis ATCC 700802 - VRE; details: ATCC 700802, 24 h
K. pneumoniae ATCC 13883 = details: ATCC 13883, 24 h
human red blood cells = details: pH 7.4
[3] = tested on: E. faecium ATCC 700221 - VRE; details: ATCC 700221, 24 h
S. aureus ATCC 12600 = details: ATCC 12600, 24 h
A. baumannii ATCC 19606 = details: ATCC 19606, 24 h
[4] = tested on: S. aureus ATCC BAA-1556 - MRSA; details: ATCC BAA-1556, 24 h
P. aeruginosa PAO1 = details: PAO1, 24 h
P. aeruginosa PA14 = details: PA14, 24 h
E. coli ATCC 11775 = details: ATCC 11775, 24 h
[5] = tested on: 11 clinically relevant pathogens; type: cell-based

Sequence	Minimal Inhibitory Concentration, E. coli AIC222 (-) [1] [µmol/L]	CC50 vs HEK293T cells (HEK293T cells) [µmol/L]	SIcytotoxicity (HEK293T cells)	Minimal Inhibitory Concentration, E. coli AIC221 (-) (E. coli AIC221) [µmol/L]	Minimal Inhibitory Concentration, E. faecalis ATCC 700802 - VRE (+) [2] [µmol/L]	Minimal Inhibitory Concentration, K. pneumoniae ATCC 13883 (-) (K. pneumoniae ATCC 13883) [µmol/L]	HC50 (human red blood cells)	Minimal Inhibitory Concentration, E. faecium ATCC 700221 - VRE (+) [3] [µmol/L]	Minimal Inhibitory Concentration, S. aureus ATCC 12600 (+) (S. aureus ATCC 12600) [µmol/L]	CC50 vs HEK293T cells (source data of Figure 4a) (HEK293T cells) [µmol/L]	Minimal Inhibitory Concentration, A. baumannii ATCC 19606 (-) (A. baumannii ATCC 19606) [µmol/L]	Minimal Inhibitory Concentration, S. aureus ATCC BAA-1556 - MRSA (+) [4] [µmol/L]	Minimal Inhibitory Concentration, P. aeruginosa PAO1 (-) (P. aeruginosa PAO1) [µmol/L]	Minimal Inhibitory Concentration, P. aeruginosa PA14 (-) (P. aeruginosa PA14) [µmol/L]	Minimal Inhibitory Concentration, E. coli ATCC 11775 (-) (E. coli ATCC 11775) [µmol/L]	Antimicrobial activity against the pathogen panel (in words) [5]
KFLARLVFRKFILL [UniprotKB-13]	32	27	13.4	8	32	64	455.9	2	–	–	–	–	–	–	–	–
KFSVFSKILRSIAKVF [Arachnoserver-18]	–	–	3.1	4	–	–	53.5	8	16	12.34	8	16	32	16	4	–
KLLKIGLKSFARVLKKVL [Arachnoserver-1]	–	–	6.6	4	–	8	82.7	16	16	26.22	16	16	–	8	8	–
KLLKIGLKSFARVLKKVL [UniprotKB-1]	–	10	2.5	4	–	–	34.9	–	16	10.13	–	–	8	8	8	–
KLSGISKVLRAIAKFFK [Arachnoserver-28]	–	6	0.8	32	–	32	38.2	8	32	6.347	32	32	32	8	64	–
KRLRAKMLNSKFIKLIKR [Conoserver-1]	–	–	5.2	16	–	–	1.085e+083	32	–	–	–	32	32	32	–	–
LLHFSIWRSTVLRK [ISOB-4]	–	–	9.7	–	64	–	24308.0	16	–	–	–	–	–	–	–	–
RGLAKLLKIGLKSFARVLKK [Arachnoserver-12]	–	8	2.1	4	–	32	40.1	8	64	8.419	32	64	16	8	16	–
RKFNWGKLFKSAKKLYKTGKKLSKNKNVRKALKFGK [Arachnoserver-7]	–	7	6.8	1	–	64	7.0	8	–	6.812	8	–	8	4	8	–
RRVKRFKKFFRKLKKSVKKRAKEFFK [ISOB-1]	–	–	28.9	8	–	–	2001.0	16	64	–	64	–	4	8	16	–
SKKQIRLYLLKYYGKKLFKKRPK [Arachnoserver-19]	32	–	2.1	32	–	–	163.3	8	–	16.68	–	–	16	16	–	–
WLGSALKIGAKLL [UniprotKB-2]	–	8	–	–	–	–	5.529e+042	–	–	8.278	–	–	–	–	–	no activity
